For experiment [1], the target named is MALT1-GS-Ub (6-His-hMALT-1 residues 339-715 fused to ubiquitin) (Homo sapiens, UniProt Q9UDY8). In words: biochemical.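 Note: in vitro MALT1 protease assay: enzyme preincubated with compound 30 min at room temperature, then cleavage of fluorogenic Ac-LVSR-AMC substrate (100 µM) followed by fluorescence every 15 min.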
Method: MALT1 protease activity was assessed in vitro by measuring the cleavage of a fluorogenic tetrapeptide substrate.
A protein (MALT1-GS-Ub) comprising 6-His-hMALT-1 (residues 339-715), fused to ubiquitin with an 8×GGS linker, was expressed in E. coli, and purified using chitin resin to remove contaminants followed by affinity chromatography purification and size-exclusion chromatography, according to standard protocols.
Briefly, MALT1-GS-Ub (300-600 nM) was incubated with substrate (Ac-LVSR-AMC, 100 μM) in reaction buffer comprising 50 mM HEPES (pH7.0), 25 mM KCl, 0.1% (v/v) CHAPS and 1 mM TCEP.
Test compounds dissolved in DMSO were dispensed into assay plates (384-well, black, shallow ProxiPlates). 7 μl enzyme solution was added and incubated at room temperature for 30 minutes to allow compound binding to occur. 2 μl substrate solution was then added and the fluorescence (excitation 360 nm, emission 460 nm) read every 15 minutes using a suitable plate reader. Final assay DMSO concentration was 1%. […] IC50 values were calculated using GraphPad Prism using a 4-parameter non-linear regression curve fit.
The target of experiment [2] is T1, FL hMALT1 enzyme (Homo sapiens, UniProt Q9UDY8).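 Note: Cell-free protease assay: enzyme preincubated with compound 30 min at room temperature, then cleavage of fluorogenic Ac-LVSR-AMC substrate (100 µM) tracked by fluorescence (ex 360/em 460 nm).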
T1 sequence (Q9UDY8 1-824): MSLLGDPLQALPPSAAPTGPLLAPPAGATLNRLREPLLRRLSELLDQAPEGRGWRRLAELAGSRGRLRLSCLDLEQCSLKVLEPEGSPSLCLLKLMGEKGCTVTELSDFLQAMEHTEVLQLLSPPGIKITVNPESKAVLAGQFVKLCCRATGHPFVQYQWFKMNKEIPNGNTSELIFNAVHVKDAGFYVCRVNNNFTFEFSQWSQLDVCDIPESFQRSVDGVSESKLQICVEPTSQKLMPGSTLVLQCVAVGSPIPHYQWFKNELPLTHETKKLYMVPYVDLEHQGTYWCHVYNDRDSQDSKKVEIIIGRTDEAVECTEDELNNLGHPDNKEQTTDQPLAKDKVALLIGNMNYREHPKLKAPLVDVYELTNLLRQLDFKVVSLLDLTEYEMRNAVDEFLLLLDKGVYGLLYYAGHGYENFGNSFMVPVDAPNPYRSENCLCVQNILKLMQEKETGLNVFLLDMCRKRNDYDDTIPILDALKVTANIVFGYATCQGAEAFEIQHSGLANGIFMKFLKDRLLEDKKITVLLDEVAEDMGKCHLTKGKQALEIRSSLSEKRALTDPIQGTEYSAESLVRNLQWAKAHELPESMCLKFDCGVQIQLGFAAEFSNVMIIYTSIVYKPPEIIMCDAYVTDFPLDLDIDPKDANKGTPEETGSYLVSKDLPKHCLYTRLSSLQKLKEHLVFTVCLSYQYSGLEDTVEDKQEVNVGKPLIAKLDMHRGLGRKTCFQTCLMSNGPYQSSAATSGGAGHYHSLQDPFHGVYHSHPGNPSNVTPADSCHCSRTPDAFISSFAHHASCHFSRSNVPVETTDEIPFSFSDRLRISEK
In words: biochemical.

Experiment [3] deals with IL-2 release from stimulated Jurkat cells. Kind of experiment: Human IL-2 Release Phenotypic Assay (Assay 3). The class given is cell-based. The note with it: Jurkat cells (clone E6-1), 200 ng/mL PMA + 300 ng/mL ionomycin, IL-2 by ELISA. The procedure, abridged: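 Jurkat E6-1 cells in RPMI1640/10% FBS were seeded at 50 000 cells/well and incubated overnight at 37° C. Half-log compound dilutions (0.5% final DMSO) were added for 30 min, then cells were stimulated with 200 ng/mL PMA + 300 ng/mL ionomycin for 48 h. IC50 came from a 4-parameter non-linear regression fit.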
Background: ELISA stands for enzyme-linked immunosorbent assay.

Sequence of MALT1-GS-Ub (6-His-hMALT-1 residues 339-715 fused to ubiquitin) (Q9UDY8 with tags, fused parts or gaps limits assumed): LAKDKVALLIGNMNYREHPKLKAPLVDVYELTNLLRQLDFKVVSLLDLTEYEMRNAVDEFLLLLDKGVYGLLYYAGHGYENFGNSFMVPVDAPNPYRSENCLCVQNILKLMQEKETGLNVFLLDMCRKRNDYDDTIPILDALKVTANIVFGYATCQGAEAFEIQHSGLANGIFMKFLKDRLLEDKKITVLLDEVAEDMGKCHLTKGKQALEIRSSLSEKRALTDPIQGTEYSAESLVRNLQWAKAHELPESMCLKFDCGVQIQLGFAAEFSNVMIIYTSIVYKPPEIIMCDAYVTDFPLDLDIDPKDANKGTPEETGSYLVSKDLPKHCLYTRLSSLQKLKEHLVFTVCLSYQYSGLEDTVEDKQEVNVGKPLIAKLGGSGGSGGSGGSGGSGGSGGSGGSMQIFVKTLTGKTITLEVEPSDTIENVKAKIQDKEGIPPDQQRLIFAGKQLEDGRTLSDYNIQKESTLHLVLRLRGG

Take `CN(C(=O)c1cnco1)[C@@H](c1ccc(NC2Cc3ccccc3C2(C)C)cc1)C(F)(F)F` (single isomer, unassigned) [Example 5]: the IC50 in experiment [1] amounted to 140 nM; in experiment [2], 250 nM; in experiment [3] (48 hours), 2250 nM.

Regarding `CN1CC(C(=O)N(C)C(c2ccc(NC3Cc4ccccc4C3(C)C)nc2)C(F)(F)F)C1` (single isomer, unassigned) [Example 93, N-(1-(6-((1,1-Dimethyl-2,3-dihydro-1H-inden-2-yl)amino)pyridin-3-yl)-2,2,2-trifluoroethyl)-N,1-dimethylazetidine-3-carboxamide], the IC50 in experiment [1] is 1000 nM; in experiment [2], 690 nM; in experiment [3] (48 hours), 3040 nM.

As for `CN(C(=O)c1cnon1)[C@@H](c1ccc(NC2Cc3ccccc3C2(C)C)cc1)C(F)(F)F` (single isomer, unassigned) [Example 51], the midpoint of inhibition in experiment [1], the IC50, lay at 930 nM.

For the compound `CN(C(=O)c1cc[nH]c(=O)c1)C(c1ccc(NC2Cc3ccccc3C2(C)C)cn1)C(F)(F)F` (single isomer, unassigned) [Example 97, N-(1-(5-((1,1-Dimethyl-2,3-dihydro-1H-inden-2-yl)amino)pyridin-2-yl)-2,2,2-trifluoroethyl)-N-methyl-2-oxo-1,2-dihydropyridine-4-carboxamide], the figures for the IC50 in experiment [1] and in experiment [2] were 16000 nM and over 3000 nM, respectively.

`CNS(=O)(=O)CCC(=O)N(C)[C@@H](c1ccc(NC2Cc3ccccc3C2(C)C)cc1)C(F)(F)F` (single isomer, unassigned) [Example 61]: the IC50 in experiment [1] came to 180 nM; in experiment [3] (48 hours), 840 nM.

Turning to `CN(C(=O)CCCC(=O)O)[C@@H](c1ccc(NC2Cc3ccccc3C2(C)C)cc1)C(F)(F)F` (single isomer, unassigned) [Example 50], the IC50 in experiment [1] stood at 120 nM; in experiment [3] (48 hours), 2940 nM.

On to `CN(C(=O)CCC(=O)O)[C@@H](c1ccc(NC2Cc3ccccc3C2(C)C)cc1)C(F)(F)F` (single isomer, unassigned) [Example 52], for which the IC50 was found to be 260 nM in experiment [1] and 9510 nM in experiment [3] (Homo sapiens, Jurkat, 48 h).

Turning to `CN(C(=O)CCCC(=O)O)[C@@H](c1ccc(NC2Cc3ccccc3C2(C)C)cc1)C(F)(F)F` (single isomer, unassigned) [Example 49], the IC50 in experiment [1] was 260 nM; in experiment [3] (Homo sapiens, Jurkat, 48 h), 4690 nM.

As for `COc1ccc2c(c1)CC(Nc1ccc([C@H](N(C)C(=O)C3CCS(=O)(=O)CC3)C(F)(F)F)cc1)C2` (single isomer, unassigned) [Example 54], the IC50 came out at 330 nM in experiment [1] and 2110 nM in experiment [3] (Homo sapiens, Jurkat, 48 h).

As for `CN(C(=O)C1CNC1)C(c1ccc(NC2Cc3ccccc3C2(C)C)nc1)C(F)(F)F` (single isomer, unassigned) [Example 89, N-(1-(6-((1,1-Dimethyl-2,3-dihydro-1H-inden-2-yl)amino)pyridin-3-yl)-2,2,2-trifluoroethyl)-N-methylazetidine-3-carboxamide], the figures for the IC50 in experiment [1] and in experiment [2] were 6860 nM and over 3000 nM, respectively.

Regarding `CN(C(=O)c1cc[nH]c(=O)c1)C(c1ccc(NC2Cc3ccccc3C2(C)C)cn1)C(F)(F)F` (single isomer, unassigned) [Example 99, N-(1-(5-((1,1-Dimethyl-2,3-dihydro-1H-inden-2-yl)amino)pyridin-2-yl)-2,2,2-trifluoroethyl)-N-methyl-2-oxo-1,2-dihydropyridine-4-carboxamide], the IC50 was 26000 nM in experiment [1] and over 3000 nM in experiment [2].

With `CNS(=O)(=O)CCC(=O)N(C)[C@@H](c1ccc(NC2Cc3ccccc3C2(C)C)cc1)C(F)(F)F` (single isomer, unassigned) [Example 62], the IC50 was determined as 170 nM in experiment [1] and 2120 nM in experiment [3] (48 hours).

Turning to `CN1CC(C(=O)N(C)C(c2ccc(NC3Cc4ccccc4C3(C)C)nc2)C(F)(F)F)C1` (single isomer, unassigned) [Example 94, N-(1-(6-((1,1-Dimethyl-2,3-dihydro-1H-inden-2-yl)amino)pyridin-3-yl)-2,2,2-trifluoroethyl)-N,1-dimethylazetidine-3-carboxamide], the IC50 in experiment [1] is 17000 nM; in experiment [2], over 3000 nM.

In experiment [1], `CN(C(=O)OC1CN(C(=O)OC(C)(C)C)C1)[C@@H](c1ccc(NC2Cc3ccccc3C2(C)C)cc1)C(F)(F)F` (stereo partly drawn) [Example 59, tert-Butyl 3-((((1S)-1-(4-((1,1-dimethyl-2,3-dihydro-1H-inden-2-yl)amino)phenyl)-2,2,2-trifluoroethyl)(methyl)carbamoyl)oxy)azetidine-1-carboxylate] displayed an IC50 of 2710 nM.

With `CN(C(=O)C1CNC1)C(c1ccc(NC2Cc3ccccc3C2(C)C)cn1)C(F)(F)F` (single isomer, unassigned) [Example 83, N-(1-(5-((1,1-Dimethyl-2,3-dihydro-1H-inden-2-yl)amino)pyridin-2-yl)-2,2,2-trifluoroethyl)-N-methylazetidine-3-carboxamide], the half-inhibitory concentration (IC50) was 16000 nM in experiment [1] and over 3000 nM in experiment [2].

Take `CN(C(=O)C1CCS(=O)(=O)CC1)[C@@H](c1ccc(NC2Cc3ccccc3C2)cn1)C(F)(F)F` (single isomer, unassigned) [Example 71]: the half-inhibitory concentration (IC50) in experiment [1] was found to be 330 nM; in experiment [3] (Homo sapiens, Jurkat, 48 h) it was 2620 nM.

Regarding `CN(C(=O)CCC(=O)O)[C@@H](c1ccc(NC2Cc3ccccc3C2(C)C)cc1)C(F)(F)F` (single isomer, unassigned) [Example 53], the IC50 in experiment [1] is 170 nM; in experiment [3] (48 hours), 7290 nM.

In the case of `CN1CC(C(=O)N(C)C(c2ccc(NC3Cc4ccccc4C3(C)C)cn2)C(F)(F)F)C1` (single isomer, unassigned) [Example 91, N-(1-(5-((1,1-Dimethyl-2,3-dihydro-1H-inden-2-yl)amino)pyridin-2-yl)-2,2,2-trifluoroethyl)-N,1-dimethylazetidine-3-carboxamide], the IC50 in experiment [1] was 12000 nM; in experiment [2], over 3000 nM.

For the compound `CN(C(=O)C1CCS(=O)(=O)C1)[C@@H](c1ccc(NC2Cc3ccc(Cl)c(Cl)c3C2)cn1)C(F)(F)F` (single isomer, unassigned) [Example 358], the IC50 came to 55 nM in experiment [2] and 250 nM in experiment [3] (48 hours).

On to `CN1CC(C(=O)N(C)C(c2ccc(NC3Cc4ccccc4C3(C)C)cn2)C(F)(F)F)C1` (single isomer, unassigned) [Example 90, N-(1-(5-((1,1-Dimethyl-2,3-dihydro-1H-inden-2-yl)amino)pyridin-2-yl)-2,2,2-trifluoroethyl)-N,1-dimethylazetidine-3-carboxamide], for which the half-inhibitory concentration (IC50) was 81000 nM in experiment [1] and over 3000 nM in experiment [2].

With `CN(C(=O)[C@H]1C[C@H](N(C)C)C1)[C@@H](c1ccc(NC2Cc3ccccc3C2(C)C)cn1)C(F)(F)F` (single isomer, unassigned) [Example 113], the IC50 in experiment [2] came out at 67 nM; in experiment [3] (48 hours), 490 nM.

For the compound `CN(C(=O)C1CNC1)C(c1ccc(NC2Cc3ccccc3C2(C)C)cn1)C(F)(F)F` (single isomer, unassigned) [Example 86, N-(1-(5-((1,1-Dimethyl-2,3-dihydro-1H-inden-2-yl)amino)pyridin-2-yl)-2,2,2-trifluoroethyl)-N-methylazetidine-3-carboxamide], the values for the IC50 in experiment [1] and in experiment [2] were 11000 nM and over 3000 nM, respectively.

For the compound `CN(C(=O)[C@H]1CCC(=O)NC1)[C@@H](c1ccc(N[C@H]2Cc3ccc(Cl)cc3C2)cn1)C(F)(F)F` [Example 297, (S)—N—((S)-1-(5-(((S)-5-Chloro-2,3-dihydro-1H-inden-2-yl)amino)pyridin-2-yl)-2,2,2-trifluoroethyl)-N-methyl-6-oxopiperidine-3-carboxamide], the IC50 in experiment [2] turned out to be 170 nM; in experiment [3] (Homo sapiens, Jurkat, 48 h), 360 nM.

`CN(C(=O)C12CC(NS(C)(=O)=O)(C1)C2)[C@@H](c1ccc(N[C@H]2Cc3ccccc3C2(C)C)cn1)C(F)(F)F` [Example 233, N—((S)-1-(5-(((S)-1,1-dimethyl-2,3-dihydro-1H-inden-2-yl)amino)pyridin-2-yl)-2,2,2-trifluoroethyl)-N-methyl-3-(methylsulfonamido)bicyclo[1.1.1]pentane-1-carboxamide]: the IC50 turned out to be 20 nM in experiment [2] and 170 nM in experiment [3] (Homo sapiens, Jurkat, 48 h).

On to `CN(C(=O)[C@H]1C[C@@]2(CCN2C)C1)[C@@H](c1ccc(NC2Cc3ccccc3C2(C)C)cn1)C(F)(F)F` (single isomer, unassigned) [Example 157], for which the IC50 turned out to be 64 nM in experiment [2] and 770 nM in experiment [3] (48 hours).

The IC50 is the concentration that inhibits the measured activity by half.

The values are drawn from US20260184687A1, “DIHYDROINDENE DERIVATIVES AS MALT1 INHIBITORS” (C4X Discovery Limited, priority 2022, published 2026).
